Measured values reported in patent US20040033587A1, “Method and device for detecting Biologically Active Substances” (Bayer Aktiengesellschaft, priority 2002, published 2004).

Tested on: Vibrio fischeri
Assay: increase in luminescence of Vibrio fischeri culture with addition of aspartic acid to the cultivation medium
Type: cell-based
Conditions: 12.5 mg of aspartic acid added to cultivation medium; aspartic acid-free medium starts only at a later time
Experimental: In two cultivation experiments carried out in parallel, bacterial suspensions were prepared according to the method described below. In order to test the influence of aspartic acid, 12.5 mg of aspartic acid had been added to the cultivation medium of one of the two reaction mixtures. The effect of the addition of aspartic acid was detected by taking luminescence images using the Nightowl camera system from EG&G Berthold and is depicted in FIGS. 2a and 2b.
A tissue culture flask (e.g. Falcon Cat. No. 353110) which contains 125 ml of cultivation medium and a magnetic stirring bar was inoculated with bacteria from a Vibrio fischeri strain stock. The inoculated cultivation solution was then incubated with slow stirring on a magnetic stirrer at room temperature.

N[C@@H](CC(=O)O)C(=O)O [aspartic acid]
incubation time after which the culture showed a distinct luminescence: ≤ 18 h
